{"source": "patent US20150150909A1", "about": "“ANTI-GLYCATION METHODS AND COMPOSITIONS” (CORE INTELLECTUAL PROPERTIES HOLDINGS, LLC, priority 2007, published 2015)", "key": {"albumin [1]": {"test_system": "albumin", "assay": "Albumin/glucose anti-glycation assay (Example 1)", "type": "biochemical", "details": "1 mM; positive control; FIG. 1", "protocol": "Each reaction mixture contained 10 mg/ml albumin (Sigma) in PBS with 500 mM glucose (Sigma G8270) in PBS. The negative control was 10 mg/ml albumin without glucose. A negative control was used for each experimental point. The positive control was 10 mg/ml albumin with 500 mM glucose with 1 mM aminoguanidine hydrochloride (Sigma 396494).\nEach mineral extract composition was diluted in type I sterile water to 10 mg/ml sterilized by 0.22 micron filtration and incubated at dilutions 100 ug/ml, 10 ug/ml, 1 ug/ml and 0.1 ug/ml with the reaction mixture with or without glucose for 11 days at 37° C. in the presence of sodium azide.\nProtein glycation was detected by the increase of non-tryptophan fluorescence (excitation at 360 nm, emission at 460 nm) using microplate fluorometer Cytofluor 2350 (Millipore), as described (Argirova and Argirov, 2003). The glycation value for each experimental point was obtained by subtracting the background reading (samples without glucose)."}, "[2]": {"test_system": "Normal human dermal fibroblasts (NHDF)", "assay": "AGE in extracellular matrix collagen of glucose-treated NHDF, anti-AGE antibody spot blot (Example 2)", "type": "cell-based", "details": "1 mg/ml; for Intensity (AU): single replicates, hydrochloride", "protocol": "Normal human dermal fibroblasts (NHDF) were cultivated in conditions that allow the synthesis of high amounts of extracellular matrix (ECM). NHDF were grown to confluence in normal medium in adequate format. Vitamin C was added to the media to induce matrix synthesis/deposition Cells were treated, (or not treated for the negative control) by three concentrations of the mineral extract composition or by a reference compound for a positive control (aminoguanidine). All the conditions were performed in triplicate. An excess of glucose was added to the cells and the cells were incubated at 37° C. for 15 days. At the end of the time, ECM proteins (mainly collagen) were extracted and purified and a fraction of each sample was loaded onto nitrocellulose in reproducible spots. The introduction of AGEs in collagen was shown using an anti-AGE antibody and it was labeled using a peroxidase conjugate and chemiluminescent reaction (ECL). Relative signal qualification was performed using a chemiluminescense imager."}, "albumin [3]": {"test_system": "albumin", "assay": "AGE formation in the albumin/glucose model system (Example 11)", "type": "biochemical", "protocol": "Mineral extract composition (TL, ˜3% Solution) and a mogroside/mineral extract composition (SS II), Luo Han Guo Extract (L, Lot #MOG01-060502), Erythritol (E, Lot #07J241BP952) and Xylitol (X, Lot #H125T7G1) were kept at room temperature. […] The positive inhibitor control was aminoguanindine hydrochloride (AG) at 1 mM, (Sigma 396494). Protein glycation was detected by the increase of non-tryptophan fluorescence (excitation at 360 nm, emission at 460 nm) using microplate fluorometer Cytofluor 2350 (Millipore), as previously described (Argirova and Argirov, 2003). The glycation value for each experimental point was obtained by subtracting the background reading (samples without glucose) and was expressed as % of control (water)."}, "[4]": {"test_system": "adult human dermal fibroblasts (aHDF)", "assay": "Type I collagen sandwich ELISA in aHDF conditioned medium (Example 9)", "type": "cell-based", "details": "all concentrations tested (0.5%, 0.1%, 0.05%, 0.01% w:v); 72 h", "protocol": "A mineral extract composition (TL), Lot #100-151106, ˜3% Solution, and a mogroside/mineral extract composition as taught herein (SS II), mogrosides of Luo Han Guo Extract (Luo HG, Lot #MOG01-060502), Erythritol (Eryt, Lot #07241BP952) and Xylitol (Xylit, Lot #H125T7G1) were tested in the assay. All test materials were kept at room temperature. […] Water was the non-treated control and magnesium ascorbyl phosphate (MAP cat. #A8960, Sigma, St. Louis, Mo.) was the positive control. Cell culture conditioned media were harvested 72 h after the start of the experiment and tested for type I collagen by sandwich ELISA using affinity-purified antibodies, followed by streptavidin-avidin-HRP conjugate and ABTS, according to standard ELISA protocol (Dobak et al., 1994, Zhao et al, 2005). The colorimetric signal proportional to collagen content was measured with the BioRad microplate spectrophotometer 3550-UV at 405 nm."}, "human dermal fibroblasts": {"test_system": "human dermal fibroblasts", "assay": "MTT mitochondrial metabolism assay (Example 10)", "type": "cell-based", "excerpt": "The objective of this Example was to test the effect of 4 samples: A mogroside/mineral extract composition (Labeled—1 in FIG. 6A), mineral extract composition (Labeled—2 in FIG. 6A), Sucralose liquid concentrate (Labeled—3 in FIG. 6A) and erythritol (Labeled—4 in FIG. 6A) on the mitochondrial metabolism I fibroblast populations, using MTT assay. MTT assay measures the activity of succinate dehydrogenase, a key enzyme in the respiratory electron transport chain in mitrochondria (Berridge & Tan, 1993).\nTest materials-were mogroside/mineral extract composition as made above in Example 9, mineral extract composition (˜3% Solution), Sucralose Liquid Concentrate (25% Sucralose by weight)—lot #F2304B311LB and Erythritol (25% Aqueous Solution)—lot #RFA 2104-35, and were kept at room temperature. Materials were diluted in type I sterile water, filtered through a 0.22μ filter and assayed at final concentrations of 2.5%, 0.5% and 0.05% (v:v) on human dermal fibroblasts (Invitrogen) for 72 h in high glucose DMEM medium with 5% calf serum.\nIn order to measure mitochondrial metabolism in whole cell populations, at the end of the experiment, MTT (3-(4,5-dimethylthiazol-2-yl)-2,5-diphenyltetrazolium bromide, Sigma cat. #M 5655) was added to cell cultures and incubation was continued for an additional 2 hours. Culture media were then discarded and intracellular MTT reduction product formazan was solubilized in 90% isopropanol. The colorimetric signal proportional to the mitochondrial activity in the cell cultures was measured with the BioRad microplate spectrophotometer 3550-UV at 570 nm."}, "[5]": {"test_system": "Normal human dermal fibroblasts", "assay": "Type I collagen sandwich ELISA in fibroblast conditioned medium (Example 4)", "type": "cell-based", "details": "positive control; 5 days; FIG. 3", "protocol": "Normal human dermal fibroblasts (passage 7, lot #7F1254, Cambrex, Walkersville, Md.) were seeded in a 96-well plate (plate #431) in DMEM medium (high glucose) containing 5% fetal calf serum, and grown to late subconfluent stage. Aqueous solutions of mineral extract composition were prepared in sterile Type I water and added to cell cultures at 1/20 dilution. Water was the non-treated control and magnesium ascorbyl phosphate (MAP cat. #A8960, Sigma, St. Louis, Mo.) was the positive control. Cell culture conditioned media were harvested 5 days after the start of the experiment and tested for type I collagen by sandwich ELISA using affinity-purified antibodies, followed by streptavidin-avidin-HRP conjugate and ABTS, according to standard ELISA protocol (Dobak et al., 1994, Zhao et al, 2005).\nThe colorimetric signal proportional to collagen content was measured with the BioRad microplate spectrophotometer 3550-UV at 405 nm. See FIG. 3, Effect of mineral extract composition on type I collagen in HDF-conditioned medium."}, "[6]": {"test_system": "human dermal fibroblasts from a donor", "assay": "MTT mitochondrial metabolism assay (Example 3)", "type": "cell-based", "protocol": "The objective of this assay was to test the effect of mineral extract compositions (6 lots) on the mitochondrial metabolism in a cell culture population, using MTT assay. MTT assay measures the activity of succinate dehydrogenase, a key enzyme in the respiratory electron transport chain is mitochondria (Berridge & Tan, 1993).\nMineral extract compositions were diluted in type I sterile water to 10 mg/ml, sterilized by 0.22 micron filtration and incubated at dilutions 500 ug/ml, 50 ug/ml and 5 ug/ml and 0.5 ug/ml with 2,500 human dermal fibroblasts from a donor (Cascade Biologics, lot #061215-901) per well for 72 h in high glucose DMEM medium with 2.5% calf serum.\nFor mitochondrial metabolism measurement, at the end of the experiment, MTT (3-(4,5-dimethylthiazol-2-yl)-2,5-diphhenyltetrazolium bromide, Sigma cat. #M 5655) was added to cell cultures and incubated for 2 h. Culture media were then discarded and intracellular MTT reduction product formazan was solubilized in 100% DMSO. The colorimetric signal proportional to the mitochondrial activity in the cell cultures was measured with the BioRad microplate spectrophotometer 3550-UV at 570 nm.\nThe mitochondrial metabolism was standardized with regard to cell numbers by establishing the ratio of the two corresponding signals."}, "[7]": {"test_system": "Clostridium collagenase IV", "assay": "Metalloproteinase (collagenase) activity, Enzcheck quenched fluorescent gelatin (Example 5)", "type": "biochemical", "details": "100 ug/ml; positive control", "protocol": "Metalloproteinase (MP) (collagenase) activity was measured with Enzcheck kit from Molecular Probes (Invitrogen, IL) using quenched fluorescent gelatin and Clostridium collagenase IV, a generic metalloproteinase. Mineral extract composition, in dilutions of 500 ug/ml, 50 ug/ml and 5 ug/ml and 0.5 ug/ml, were incubated in the presence of collagenase substrate-quenched fluorescin-linked gelatin and in the presence of the proteolytic enzyme collagenase. Phenanthroline, a potent MP inhibitor was used as positive control at 100 ug/ml. The kinetics of the release of the digested, fluorescent gelatin were measured at excitation/emission wavelengths of 485/530 nm with Millipore Cytofluor 2350 microfluorometer."}, "[8]": {"details": "2.5%, 0.5% and 0.05% (v:v), 72 h, FIG. 6A"}}, "note": "Values joined by “and” are separate entries in the source; they are usually repeats but may differ in a detail not shown here. Identical values can stand only once."}
{"compound": "Cl.N=C(N)NN", "note": "[Aminoguanidine, aminoguanidine hydrochloride]", "values": [{"measurement": "inhibitory activity on albumin glycation", "setting": "albumin [1]", "result": "good inhibitory activity"}, {"measurement": "% Control", "setting": "[2]; First membrane", "result": 62, "unit": "%"}, {"measurement": "Average", "setting": "[2]; First membrane", "result": 33454, "unit": "AU"}, {"measurement": "Intensity (AU)", "setting": "[2]; First membrane", "result": "38328 AU and 37316 AU and 24719 AU"}, {"measurement": "% Control", "setting": "[2]; Membrane 2", "result": 64, "unit": "%"}, {"measurement": "Average", "setting": "[2]; Membrane 2", "result": 38752, "unit": "AU"}, {"measurement": "Intensity (AU)", "setting": "[2]; Membrane 2", "result": "38464 AU (2×) and 41333 AU (2×) and 36460 AU (2×)"}, {"measurement": "glycation-inhibitory activity", "setting": "albumin [3]; 1 mM, positive inhibitor control", "result": "strong glycation-inhibitory activity"}]}
{"compound": "OC[C@@H](O)[C@@H](O)CO", "note": "[Erythritol]", "values": [{"measurement": "collagen-stimulatory activity", "setting": "[4]", "result": "no significant activity"}, {"measurement": "effect on mitochondrial metabolism (MTT)", "setting": "human dermal fibroblasts; [8]", "result": "no activity"}, {"measurement": "glycation-inhibitory effect", "setting": "albumin [3]; at lower concentrations", "result": "moderate inhibitory effect"}]}
{"compound": "O=C1O[C@H]([C@@H](O)CO)C([O-])=C1OP(=O)([O-])[O-].O=C1O[C@H]([C@@H](O)CO)C([O-])=C1OP(=O)([O-])[O-].[Mg+2].[Mg+2].[Mg+2]", "note": "[MAP, magnesium ascorbyl phosphate]", "values": [{"measurement": "stimulation of collagen I", "setting": "[5]", "result": "Strong stimulation"}]}
{"compound": "OC[C@H]1O[C@H](O[C@]2(CCl)O[C@H](CCl)[C@@H](O)[C@@H]2O)[C@H](O)[C@@H](O)[C@H]1Cl", "note": "[Sucralose]", "values": [{"measurement": "effect on mitochondrial metabolism (MTT)", "setting": "human dermal fibroblasts; [8]", "result": "inhibited cell metabolism"}]}
{"compound": "OC[C@@H](O)[C@H](O)[C@@H](O)CO", "note": "[Xylitol]", "values": [{"measurement": "collagen-stimulatory activity", "setting": "[4]", "result": "no significant activity"}, {"measurement": "glycation-inhibitory effect", "setting": "albumin [3]; all concentrations tested (0.5%, 0.1%, 0.05%, 0.01% w:v), FIG. 7", "result": "no effect"}]}
{"compound": "CN(CC(=O)O)C(=N)N", "note": "[creatine]", "values": [{"measurement": "stimulation of mitochondrial metabolism", "setting": "[6]; 500 ug/ml, 72 h", "result": 6.3, "unit": "%"}]}
{"compound": "c1cnc2c(c1)ccc1cccnc12", "note": "[phenanthroline, Phenanthroline]", "values": [{"measurement": "MP activity", "setting": "[7]", "result": "totally inhibited"}]}
{"compound": "bFGF: basic fibroblast growth factor, positive control", "values": [{"measurement": "sensitivity of fibroblast mitochondrial metabolism", "setting": "[6]; results not shown", "result": "not sensitive"}, {"measurement": "effect on mitochondrial metabolism (MTT)", "setting": "human dermal fibroblasts; 15 nM, positive control", "result": "metabolic stimulation"}]}
